Experimental data from patent US8362000B2, “Azetidinyl diamides as monoacylglycerol lipase inhibitors” (Janssen Pharmaceutica NV, priority 2009, dated 2013).

Tests used:
MGL = biological target: T1, MGL (Rattus norvegicus, UniProt Q8R431); assay: 2-AG accumulation assay in rat brain homogenate; assay type: biochemical; conditions: rat brain homogenate, 2-AG accumulation as percent of vehicle; for 2-AG accumulation, % of vehicle control at 10 µM: compound 10 μM, read-out: Rat Brain 2AG % VehCntrl (%) @ 10 μM; for 2-AG accumulation, % of vehicle control at 1 µM: compound 1 μM, read-out: Rat Brain 2AG % VehCntrl (%) @ 1 μM
T1 construct: one g rat brain was homogenized using a Polytron homogenizer; from tissue; host or cells: rat brain homogenate
T1 sequence (Q8R431 1-303): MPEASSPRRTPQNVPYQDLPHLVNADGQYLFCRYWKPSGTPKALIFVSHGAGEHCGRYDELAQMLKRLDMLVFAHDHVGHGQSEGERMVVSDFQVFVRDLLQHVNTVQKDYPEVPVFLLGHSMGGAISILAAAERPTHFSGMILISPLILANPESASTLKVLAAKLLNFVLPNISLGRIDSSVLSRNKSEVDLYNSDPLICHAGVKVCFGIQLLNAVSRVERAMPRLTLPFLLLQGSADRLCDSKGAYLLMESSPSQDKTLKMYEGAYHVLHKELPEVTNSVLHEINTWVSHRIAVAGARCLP

[1] = biological target: T2, purified wild type MGL (wt-MGLL 6H-11-313) (Homo sapiens, UniProt Q99685)
T2 sequence (Q99685 1-303): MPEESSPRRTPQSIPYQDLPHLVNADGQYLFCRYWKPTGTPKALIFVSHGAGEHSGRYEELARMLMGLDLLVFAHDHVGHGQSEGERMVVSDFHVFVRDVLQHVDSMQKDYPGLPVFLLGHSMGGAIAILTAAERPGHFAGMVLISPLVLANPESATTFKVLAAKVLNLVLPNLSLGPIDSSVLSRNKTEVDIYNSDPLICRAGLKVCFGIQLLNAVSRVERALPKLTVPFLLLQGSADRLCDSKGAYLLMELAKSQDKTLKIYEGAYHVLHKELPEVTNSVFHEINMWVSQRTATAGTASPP

Structure (SMILES)	2-AG accumulation, % of vehicle control at 10 µM (MGL) [%]	IC50 [1] [nM]	2-AG accumulation, % of vehicle control at 0.1 µM (MGL; compound 0.1 μM, read-out: Rat Brain 2AG % VehCntrl (%) @ 0.1 μM) [%]	2-AG accumulation, % of vehicle control at 1 µM (MGL) [%]
O=C(c1cccc(-c2ccccc2C(F)(F)F)c1)N1CC(N2CCN(C(=O)c3nccs3)CC2)C1 [Cpd 148, 1-(1,3-Thiazol-2-ylcarbonyl)-4-(1-{[2′-(trifluoromethyl)biphenyl-3-yl]carbonyl}azetidin-3-yl)piperazine]	744	< 5	–	–
O=C(c1ccc(-c2ccc(Cl)c(Cl)c2)cc1)N1CC(N2CCN(C(=O)c3nccs3)CC2)C1 [Cpd 175, 1-{1-[(3′,4′-Dichlorobiphenyl-4-yl)carbonyl]azetidin-3-yl}-4-(1,3-thiazol-2-ylcarbonyl)piperazine]	–	< 5	330	706
O=C(c1ccccc1)N1CCN(C2CN(C(=O)c3ccc(-c4ccccc4OC(F)(F)F)cc3)C2)CC1 [Cpd 196, 1-(Phenylcarbonyl)-4-(1-{[2′-(trifluoromethoxy)biphenyl-4-yl]carbonyl}azetidin-3-yl)piperazine]	516	216	–	–
CS(=O)(=O)c1cccc(-c2ccc(C(=O)N3CC(N4CCN(C(=O)c5nccs5)CC4)C3)cc2)c1 [Cpd 208, 1-(1-{[3′-(Methylsulfonyl)biphenyl-4-yl]carbonyl}azetidin-3-yl)-4-(1,3-thiazol-2-ylcarbonyl)piperazine]	324	92	–	480
O=C(c1ccc(-c2ccc(Cl)c(C(F)(F)F)c2)cc1)N1CC(N2CCN(C(=O)c3nccs3)CC2)C1 [Cpd 212, 1-(1-{[4′-Chloro-3′-(trifluoromethyl)biphenyl-4-yl]carbonyl}azetidin-3-yl)-4-(1,3-thiazol-2-ylcarbonyl)piperazine]	831	< 5	–	–
CS(=O)(=O)Nc1cccc(-c2ccc(C(=O)N3CC(N4CCN(C(=O)c5nccs5)CC4)C3)cc2)c1 [Cpd 219, N-[4′-({3-[4-(1,3-Thiazol-2-ylcarbonyl)piperazin-1-yl]azetidin-1-yl}carbonyl)biphenyl-3-yl]methanesulfonamide]	851	32	–	–
O=C(c1ccc(-c2ccc(F)c(Cl)c2)cc1)N1CC(N2CCN(C(=O)c3cscn3)CC2)C1 [Cpd 227, 1-{1-[(3′-Chloro-4′-fluorobiphenyl-4-yl)carbonyl]azetidin-3-yl}-4-(1,3-thiazol-4-ylcarbonyl)piperazine]	938	7	–	–
O=C(c1ccc(-c2ccc(Cl)c(Cl)c2)cc1)N1CC(N2CCN(C(=O)c3cscn3)CC2)C1 [Cpd 228, 1-{1-[(3′,4′-Dichlorobiphenyl-4-yl)carbonyl]azetidin-3-yl}-4-(1,3-thiazol-4-ylcarbonyl)piperazine]	710	< 5	–	–
O=C(c1ccc2c(c1)CCCN2C(=O)C1CCC1)N1CC(N2CCN(C(=O)c3nccs3)CC2)C1 [Cpd 364]	–	210	–	581
O=C(c1ccccc1)N1CCN(C2CN(C(=O)c3ccc(OCc4cccc(Cl)c4Cl)cc3)C2)CC1 [Cpd 381, 1-[1-({4-[(2,3-Dichlorobenzyl)oxy]phenyl}carbonyl)azetidin-3-yl]-4-(phenylcarbonyl)piperazine]	520	< 5	–	–
O=C(c1ccccc1)N1CCN(C2CN(C(=O)c3ccc(Oc4cc(C(F)(F)F)ccn4)cc3)C2)CC1 [Cpd 518]	–	1610	–	86
O=C(c1cccc(C(F)(F)F)c1)N1CCc2cc(C(=O)N3CC(N4CCN(C(=O)c5nccs5)CC4)C3)ccc2C1 [Cpd 679, 6-({3-[4-(1,3-Thiazol-2-ylcarbonyl)piperazin-1-yl]azetidin-1-yl}carbonyl)-2-{[3-(trifluoromethyl)phenyl]carbonyl}-1,2,3,4-tetrahydroisoquinoline]	–	24	–	751
O=C(c1ccc(Oc2cccc(C(F)(F)F)c2)nc1)N1CC(N2CCN(C(=O)c3cscn3)CC2)C1 [Cpd 689]	–	45	–	136
O=C(c1ccc(S(=O)(=O)c2cccc(Cl)c2)cc1)N1CC(N2CCN(C(=O)c3nccs3)CC2)C1 [Cpd 876]	–	< 5	–	363
O=C(c1ccc2c(c1)CCN(Cc1ccc(C(F)(F)F)cc1)C2)N1CC(N2CCN(C(=O)c3nccs3)CC2)C1 [Cpd 880]	–	< 5	–	945
O=C(c1ccc2c(c1)Sc1ccccc1O2)N1CC(N2CCN(C(=O)c3nccs3)CC2)C1 [Cpd 886]	–	< 5	–	823
O=C(c1ccc(N2CCCCCC2)cc1)N1CC(N2CCN(C(=O)c3nccs3)CC2)C1 [Cpd 888]	–	< 5	–	940
O=C(c1ccc(Cc2cccc(C(F)(F)F)c2)cc1)N1CC(N2CCN(C(=O)c3cscn3)CC2)C1 [Cpd 998]	–	< 5	–	639
O=C(c1ccc(Cc2ccc(C(F)(F)F)cc2)cc1)N1CC(N2CCN(C(=O)c3cscn3)CC2)C1 [Cpd 999]	–	8	–	458
O=C(c1ccc2c(ccn2-c2ccc(F)cc2F)c1)N1CC(N2CCN(C(=O)c3ccc[nH]3)CC2)C1 [Cpd 1061, 1-(2,4-Difluorophenyl)-5-({3-[4-(1H-pyrrol-2-ylcarbonyl)piperazin-1-yl]azetidin-1-yl}carbonyl)-1H-indole]	–	6	–	618
O=C(c1ccc2c(-c3ccc(C(F)(F)F)cc3)ncnc2c1)N1CC(N2CCN(C(=O)c3nccs3)CC2)C1 [Cpd 1086]	–	9	–	488
Cc1c(C(=O)N2CC(N3CCN(C(=O)c4nccs4)CC3)C2)nn(-c2ccc(Cl)cc2Cl)c1-c1ccc(Cl)cc1 [Cpd 1103]	–	13	–	698
O=C(c1ccc2c(-c3ccccc3)ncnc2c1)N1CC(N2CCN(C(=O)c3nccs3)CC2)C1 [Cpd 1130]	–	22	–	553
O=C(c1ccc(-c2ccc(C(F)(F)F)s2)cc1)N1CCN(C2CN(C(=O)c3cscn3)C2)CC1 [Cpd 1136]	–	25	–	325
Cn1cc(-c2ccc(C(F)(F)F)cc2)c2ccc(C(=O)N3CC(N4CCN(C(=O)c5cscn5)CC4)C3)cc21 [Cpd 1148]	–	33	–	344
Cn1cc(-c2ccccc2)c2ccc(C(=O)N3CC(N4CCN(C(=O)c5cscn5)CC4)C3)cc21 [Cpd 1155]	–	41	–	617
O=C(c1cc(-c2ccccc2)n(-c2ccccc2)n1)N1CC(N2CCN(C(=O)c3nccs3)CC2)C1 [Cpd 1164]	–	48	–	250
Cn1cc(-c2ccc(C(F)(F)F)cc2)c2ccc(C(=O)N3CC(N4CCN(C(=O)c5nccs5)CC4)C3)cc21 [Cpd 1347]	–	< 5	–	741
